These results are taken from PubChem BioAssay AID256 (DTP/NCI, 2004).

For the experiment, the system named is CD2F1 mice, L1210 leukemia ip, survival T/C. The experiment is described as follows: NCI In Vivo Anticancer Drug Screen. Data for tumor model L1210 Leukemia (intraperitoneal) in CD2F1 (CDF1) mice. The settings on record: higher = longer survival. The method in brief: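 Mice carrying a transplanted tumor received test compound or vehicle alone. The value is the measurement in the treated group divided by that in the vehicle-treated control group.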

Setting [1] is: endpoint: mean survival time, dose: 100.0 mg/kg/injection, schedule: Q04DX003 (ip), vehicle: saline.
Setting [2] is: endpoint: mean survival time, dose: 200.0 mg/kg/injection, schedule: Q04DX003 (ip), vehicle: saline.
Setting [3] is: endpoint: mean survival time, dose: 400.0 mg/kg/injection, schedule: Q04DX003 (ip), vehicle: saline.
Where [4] appears, read: endpoint: mean survival time, dose: 100.0 mg/kg/injection, schedule: Q04DX003 (ip), vehicle: saline with Tween-80.
The mark [5] stands for this setting: endpoint: mean survival time, dose: 200.0 mg/kg/injection, schedule: Q04DX003 (ip), vehicle: saline with Tween-80.
The mark [6] stands for this setting: endpoint: mean survival time, dose: 400.0 mg/kg/injection, schedule: Q04DX003 (ip), vehicle: saline with Tween-80.
[7] abbreviates: endpoint: mean survival time, dose: 25.0 mg/kg/injection, schedule: Q04DX003 (ip), vehicle: saline with Tween-80.
[8] abbreviates: endpoint: mean survival time, dose: 50.0 mg/kg/injection, schedule: Q04DX003 (ip), vehicle: saline with Tween-80.
Where [9] appears, read: endpoint: mean survival time, dose: 100.0 mg/kg/injection, schedule: Q01DX009 (ip), vehicle: saline with Tween-80.
[10] abbreviates: endpoint: mean survival time, dose: 200.0 mg/kg/injection, schedule: Q01DX009 (ip), vehicle: saline with Tween-80.
Where [11] appears, read: endpoint: mean survival time, dose: 400.0 mg/kg/injection, schedule: Q01DX009 (ip), vehicle: saline with Tween-80.
Where [12] appears, read: endpoint: mean survival time, dose: 100.0 mg/kg/injection, schedule: Q01DX009 (ip), vehicle: other.
Setting [13] is: endpoint: mean survival time, dose: 200.0 mg/kg/injection, schedule: Q01DX009 (ip), vehicle: other.
[14] abbreviates: endpoint: mean survival time, dose: 400.0 mg/kg/injection, schedule: Q01DX009 (ip), vehicle: other.

“And” between values parts separate entries of the source, which are not always exact repeats. Identical values can stand only once. Inconclusive results and toxic doses are left out.

As for `O=S(=O)(O)c1ccc(-c2nnc(-c3ccccn3)nc2-c2ccc(S(=O)(=O)O)cc2)cc1`, the T/C was 96 % of control (endpoint: mean survival time, dose: 100.0 mg/kg/injection, schedule: Q01DX009 (ip), vehicle: saline sonified); 97 % of control under setting [1]; 98 % of control (endpoint: mean survival time, dose: 200.0 mg/kg/injection, schedule: Q01DX009 (ip), vehicle: saline sonified); 97 % of control under setting [2]; 94 % of control (endpoint: mean survival time, dose: 400.0 mg/kg/injection, schedule: Q01DX009 (ip), vehicle: saline sonified); 92 % of control under setting [3].

As for `CCC1CCCCC1(O)CC` (centres undefined), the T/C was 106 % of control under setting [4], 103 % of control under setting [5] and 103 % of control under setting [6].

Regarding `O=C(CCCN1CCN2Cc3[nH]c4ccccc4c3CC2C1)c1ccc(F)cc1` (centres undefined), the T/C by setting is: under setting [7], 101 % of control; under setting [8], 107 % of control; under setting [4], 103 % of control.

Turning to `CC1=C(C)C(COS(=O)(=O)c2ccc(C)cc2)C1COS(=O)(=O)c1ccc(C)cc1` (centres undefined), the T/C under setting [1] was 97 % of control, the T/C under setting [2] was 97 % of control and the T/C under setting [3] is 95 % of control.

As to `CC(=O)S[C@@H]1CC2=CC(=O)CC[C@]2(C)[C@H]2CC[C@@]3(C)[C@@H](CC[C@@]34CCC(=O)O4)[C@H]12`, the T/C is 95 % of control (endpoint: mean survival time, dose: 100.0 mg/kg/injection, schedule: Q04DX003 (sc), vehicle: steriod suspending solution); 97 % of control (endpoint: mean survival time, dose: 200.0 mg/kg/injection, schedule: Q04DX003 (sc), vehicle: steriod suspending solution); 98 % of control (endpoint: mean survival time, dose: 400.0 mg/kg/injection, schedule: Q04DX003 (sc), vehicle: steriod suspending solution).

Regarding `CC1(C)c2c3ccccc3cc3cccc(c23)[S+]1c1ccccc1` (centres undefined), the T/C is 105 % of control (endpoint: mean survival time, dose: 5.0 mg/kg/injection, schedule: Q01DX001 (ip), vehicle: saline with Tween-80); 106 % of control (endpoint: mean survival time, dose: 10.0 mg/kg/injection, schedule: Q01DX001 (ip), vehicle: saline with Tween-80); 111 % of control (endpoint: mean survival time, dose: 20.0 mg/kg/injection, schedule: Q01DX001 (ip), vehicle: saline with Tween-80).

In the case of `O=c1ccnc2cc[nH]n12`, the T/C is 104 % of control (endpoint: median survival time, dose: 50.0 mg/kg/injection, schedule: Q01DX005 (ip), vehicle: saline); 101 % of control (endpoint: median survival time, dose: 100.0 mg/kg/injection, schedule: Q01DX005 (ip), vehicle: saline); 101 % of control (endpoint: median survival time, dose: 200.0 mg/kg/injection, schedule: Q01DX005 (ip), vehicle: saline).

`C[n+]1c(/C=C\c2cccc([N+](=O)[O-])c2)ccc2ccccc21`: the T/C reads like this: (endpoint: mean survival time, dose: 100.0 mg/kg/injection, schedule: Q01DX001 (ip), vehicle: saline with Tween-80) 106 % of control; under setting [9], 87 % of control; (endpoint: mean survival time, dose: 200.0 mg/kg/injection, schedule: Q01DX001 (ip), vehicle: saline with Tween-80) 95 % of control; under setting [10], 91 % of control; (endpoint: mean survival time, dose: 400.0 mg/kg/injection, schedule: Q01DX001 (ip), vehicle: saline with Tween-80) 107 % of control; under setting [11], 95 % of control.

For the compound `CCCCCCCC(O)CCCCCCC`, the T/C under setting [12] was 101 % of control; the T/C (endpoint: mean survival time, dose: 100.0 mg/kg/injection, schedule: Q04DX003 (ip), vehicle: other) was 95 % of control; the T/C under setting [13] is 98 % of control; the T/C (endpoint: mean survival time, dose: 200.0 mg/kg/injection, schedule: Q04DX003 (ip), vehicle: other) is 97 % of control; the T/C under setting [14] was 95 % of control; the T/C (endpoint: mean survival time, dose: 400.0 mg/kg/injection, schedule: Q04DX003 (ip), vehicle: other) is 100 % of control.

Take `CC(=O)Nc1ncnc2c1ncn2C1OC(COC(C)=O)C(NC(=O)C(F)(F)F)C1OC(C)=O` (centres undefined): the T/C is 109 % of control (endpoint: median survival time, dose: 12.5 mg/kg/injection, schedule: Q01DX005 (ip), vehicle: alkali diluted with saline); 102 % of control (endpoint: median survival time, dose: 25.0 mg/kg/injection, schedule: Q01DX005 (ip), vehicle: alkali diluted with saline); 109 % of control (endpoint: median survival time, dose: 50.0 mg/kg/injection, schedule: Q01DX005 (ip), vehicle: alkali diluted with saline); 107 % of control (endpoint: median survival time, dose: 100.0 mg/kg/injection, schedule: Q01DX005 (ip), vehicle: alkali diluted with saline); 106 % of control (endpoint: median survival time, dose: 200.0 mg/kg/injection, schedule: Q01DX005 (ip), vehicle: alkali diluted with saline).

As to `Nc1ccn([C@@H]2C=C(CO)[C@@H](O)[C@H]2O)c(=O)n1`, the T/C is, setting by setting: (endpoint: median survival time, dose: 0.44 mg/kg/injection, schedule: Q01DX009 (ip), vehicle: saline) 162 % of control and 168 % of control; (endpoint: median survival time, dose: 0.45 mg/kg/injection, schedule: Q01DX009 (ip), vehicle: saline) 153 % of control; (endpoint: median survival time, dose: 0.67 mg/kg/injection, schedule: Q01DX009 (ip), vehicle: saline) 180 % of control (2×) and 191 % of control; (endpoint: median survival time, dose: 0.67 mg/kg/injection, schedule: Q01DX009 (oral), vehicle: saline) 101 % of control; (endpoint: median survival time, dose: 1.5 mg/kg/injection, schedule: Q01DX009 (oral), vehicle: saline) 155 % of control and 205 % of control; (endpoint: median survival time, dose: 2.0 mg/kg/injection, schedule: Q04DX003 (ip), vehicle: saline) 171 % of control. Also, the T/C runs as follows: (endpoint: median survival time, dose: 2.25 mg/kg/injection, schedule: Q01DX009 (ip), vehicle: saline) 117 % of control and 246 % of control; (endpoint: median survival time, dose: 2.25 mg/kg/injection, schedule: Q01DX009 (oral), vehicle: saline) 157 % of control and 225 % of control; (endpoint: median survival time, dose: 4.0 mg/kg/injection, schedule: Q01DX009 (ip), vehicle: saline) 93 % of control; (endpoint: median survival time, dose: 4.0 mg/kg/injection, schedule: Q04DX003 (ip), vehicle: saline) 191 % of control; (endpoint: median survival time, dose: 5.05 mg/kg/injection, schedule: Q01DX009 (oral), vehicle: saline) 123 % of control and 104 % of control; (endpoint: median survival time, dose: 8.0 mg/kg/injection, schedule: Q04DX003 (ip), vehicle: saline) 183 % of control. In addition, the T/C (endpoint: median survival time, dose: 250.0 micrograms/kg/injection, schedule: Q03HX024 (ip), vehicle: saline) was 187 % of control; the T/C (endpoint: median survival time, dose: 500.0 micrograms/kg/injection, schedule: Q03HX024 (ip), vehicle: saline) is 216 % of control; the T/C (endpoint: median survival time, dose: 2000.0 micrograms/kg/injection, schedule: Q03HX024 (ip), vehicle: saline) is 96 % of control.

Turning to `CCN(Cc1cccc(S(=O)(=O)O)c1)c1ccc(C(=C2C=CC(=[N+](CC)Cc3cccc(S(=O)(=O)O)c3)C=C2)c2ccc(S(=O)(=O)O)cc2)cc1`, the T/C under setting [9] is 103 % of control; the T/C under setting [4] was 96 % of control; the T/C under setting [10] was 97 % of control; the T/C under setting [5] is 93 % of control; the T/C under setting [11] is 95 % of control; the T/C under setting [6] was 90 % of control.

As to `CCON(C(C)=O)c1cccc([N+](=O)[O-])c1`, the T/C is 97 % of control (endpoint: mean survival time, dose: 100.0 mg/kg/injection, schedule: Q01DX001 (ip), vehicle: saline); 100 % of control (endpoint: mean survival time, dose: 200.0 mg/kg/injection, schedule: Q01DX001 (ip), vehicle: saline); 97 % of control (endpoint: mean survival time, dose: 400.0 mg/kg/injection, schedule: Q01DX001 (ip), vehicle: saline).

`CC(C)OC(=O)Nc1ccccc1F`: the T/C is 97 % of control under setting [12], 96 % of control under setting [13] and 94 % of control under setting [14].

For `C(=C(c1ccccc1)c1ccccc1)=C(c1ccccc1)c1ccccc1`, the T/C reads like this: under setting [9], 93 % of control; under setting [4], 100 % of control; under setting [10], 90 % of control; under setting [5], 97 % of control; under setting [11], 90 % of control; under setting [6], 95 % of control.

As for `O=C(O)C1CCCN1C(=O)c1ccccc1` (centres undefined), the T/C runs as follows: under setting [4], 103 % of control; under setting [5], 93 % of control; under setting [6], 98 % of control.

As to `Cc1ccc(-n2c(=S)[nH]c3ccc(C)cc3c2=O)cc1`, the T/C (endpoint: mean survival time, dose: 0.38 mg/kg/injection, schedule: Q01DX009 (ip), vehicle: saline with Tween-80) was 90 % of control; the T/C (endpoint: mean survival time, dose: 0.75 mg/kg/injection, schedule: Q01DX009 (ip), vehicle: saline with Tween-80) is 92 % of control; the T/C (endpoint: mean survival time, dose: 1.5 mg/kg/injection, schedule: Q01DX009 (ip), vehicle: saline with Tween-80) was 98 % of control; the T/C (endpoint: mean survival time, dose: 1.56 mg/kg/injection, schedule: Q01DX009 (ip), vehicle: saline with Tween-80) was 95 % of control; the T/C under setting [7] is 92 % of control; the T/C under setting [8] is 90 % of control. For the same compound, the T/C under setting [4] was 87 % of control.
